Measured values reported in US20050228180A1, “Alpha, omega-dicarboximide derivatives as useful uro-selective a1a adrenoceptor blockers” (priority 2002, published 2005).
Where a name gives a salt, the structure may show the parent alone.

Key:
[1] = molecular target: T1, α1A adrenoceptor (Rattus norvegicus, UniProt P43140); test: Radioligand binding, [3H] prazosin displacement, rat submaxillary membranes; conditions: for Ki: [3H] prazosin displacement, rat submaxillary membranes, read-out: Affinity (Ki) α1A (Rat Submaxillary); for α1B/α1A: ratio of binding affinities, rat liver / rat submaxillary
T1 construct: from tissue; host or cells: rat submaxillary gland membranes
T1 sequence (P43140 1-466): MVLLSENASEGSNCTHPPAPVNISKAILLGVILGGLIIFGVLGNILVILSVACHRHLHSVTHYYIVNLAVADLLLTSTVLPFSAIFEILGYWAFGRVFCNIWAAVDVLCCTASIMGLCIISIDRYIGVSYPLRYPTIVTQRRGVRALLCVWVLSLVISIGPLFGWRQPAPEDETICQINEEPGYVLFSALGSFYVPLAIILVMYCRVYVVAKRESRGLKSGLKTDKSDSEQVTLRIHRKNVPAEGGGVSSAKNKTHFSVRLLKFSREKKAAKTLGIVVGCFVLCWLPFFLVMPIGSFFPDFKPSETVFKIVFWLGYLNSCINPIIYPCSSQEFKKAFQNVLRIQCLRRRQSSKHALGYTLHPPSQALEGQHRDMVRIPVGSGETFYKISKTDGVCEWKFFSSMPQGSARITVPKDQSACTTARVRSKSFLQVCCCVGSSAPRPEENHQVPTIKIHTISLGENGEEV
Experimental: (§1) Receptor binding assays were performed using native a-adrenoceptors. The affinity of different compounds for α1A and α1B adrenoceptor subtypes was evaluated by studying their ability to displace specific [^3H] prazosin binding from the membranes of rat submaxillary and liver respectively (Michel et al., Br J Pharmacol, 1989: 98:883). The binding assays were performed according to U+Prichard et al. (Eur J Pharmacol, 1978; 50:87 with minor modifications.
(§2) Submaxillary glands were isolated immediately after sacrifice. The liver was perfused with buffer (Tris HCl 50 mM, NaCl 100 mM, 10 mM EDTA pH 7.4). The tissues were homogenised in 10 volumes of buffer (Tris HCl 50 mM, NaCl 100 mM, 10 mM EDTA pH 7.4). The homogenate was filtered through two layers of wet gauge and filtrate was centrifuged at 500 g for 10 min. The supernatant was subsequently centrifuged at 40,000 g for 45 min. The pellet thus obtained was resuspended in the same volume of assay buffer (Tris HCl 50 mM, 5 mM EDTA pH 7.4) and was stored at −70° C. until the time of assay.
(§3) The membrane homogenates (150-250 μg protein) were incubated in 250 μl of assay buffer (Tris HCl 50 mM, EDTA 5 mM, pH 7.4) at 24-25° C. for 1 hour. Non specific binding was determined in the presence of 300 nM prazosin. The incubation was terminated by vacuum filtration over GF/B fibre filters. The filters were then washed with ice cold 50 mM Tris HCl buffer (pH 7.4). The filtermats were dried and bound radioactivity retained on filters was counted. The IC50 and Kd were estimated by using the non-linear curve-fitting program using G Pad Prism software. The value of inhibition constant Ki was calculated from competitive binding studies by using Cheng & Prusoff equation (Cheng & Prusoff, Biochem Pharmacol, 1973, 22: 3099-3108), Ki=IC50/(1+L/Kd) where L is the concentration of [^3H] prazosin used in the particular experiment (Table 1).

[2] = molecular target: T2, α1B adrenoceptor (Rattus norvegicus, UniProt P15823); test: Radioligand binding, [3H] prazosin displacement, rat liver membranes; conditions: read-out: Affinity (Ki) α1B (Rat Liver)
T2 construct: from tissue; host or cells: rat liver membranes
T2 sequence (P15823 1-515): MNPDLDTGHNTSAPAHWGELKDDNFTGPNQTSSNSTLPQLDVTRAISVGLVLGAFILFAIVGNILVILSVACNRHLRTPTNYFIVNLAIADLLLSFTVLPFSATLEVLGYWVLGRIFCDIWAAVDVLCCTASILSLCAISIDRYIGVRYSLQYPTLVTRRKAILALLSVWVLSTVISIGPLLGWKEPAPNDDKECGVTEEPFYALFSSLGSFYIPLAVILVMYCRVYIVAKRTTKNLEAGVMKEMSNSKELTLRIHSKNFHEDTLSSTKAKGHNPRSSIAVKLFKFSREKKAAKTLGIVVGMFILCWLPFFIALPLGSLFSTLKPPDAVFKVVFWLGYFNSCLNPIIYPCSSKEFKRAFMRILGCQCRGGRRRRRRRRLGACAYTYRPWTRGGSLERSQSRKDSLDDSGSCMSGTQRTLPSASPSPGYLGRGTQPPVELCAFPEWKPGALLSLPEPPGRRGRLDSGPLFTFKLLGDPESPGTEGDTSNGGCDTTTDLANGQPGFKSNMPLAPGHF
Experimental: as §1, §2, §3

Ki [1] [µM] | α1B/α1A [1] | Ki [2] [µM] | Compound
0.07 | 20 | 1.38 | 1-[4-(2-Ethoxyphenyl)piperazin-1-yl]-3-(2,6-dioxopiperadin-1-yl)ethane hydrochloride [compound 05]
0.049 | 10 | 0.504 | Cl.O=C1C2CC=CCC2C(=O)N1CC(O)CN1CCN(c2ccccc2O)CC1 (centres unmarked) [Compound No. 14, 2-[3-{4-(2-Hydroxyphenyl)piperazin-1-yl}-2-hydroxypropyl]-3a,4,7,7a-tetrahydro-1H-isoindole-1,3(2H)-dione hydrochloride]
0.035 | 10 | 0.346 | CCOc1ccccc1N1CCN(CCN2C(=O)C3CC=CCC3C2=O)CC1.Cl (centres unmarked) [Compound No. 15, 2-[2-{4-(2-Ethoxyphenyl)piperazin-1-yl}ethyl]-3a,4,7,7a-tetrahydro-1H-isoindole-1,3(2H)-dione hydrochloride]
0.019 | 14 | 0.267 | Cl.O=C1C2CC=CCC2C(=O)N1CCN1CCN(c2ccccc2OCC(F)(F)F)CC1 (centres unmarked) [Compound No. 16, 2-[2-{4-(2-(2,2,2-Trifluoroethoxy)phenyl)piperazin-1-yl}ethyl]-3a,4,7,7a-tetrahydro-1H-isoindole-1,3(2H)-dione hydrochloride]
1.59 | 0.7 | 1.09 | O=C1C2CC=CCC2C(=O)N1CCC[N+]1([O-])CCN(c2ccccc2O)CC1 (centres unmarked) [Compound No. 22, 2-[3-{4-(2-Hydroxyphenyl)piperazin-1-yl, 1-N-oxide}propyl]-3a,4,7,7a-tetrahydro-1H-isoindole-1,3(2H)-dione]
0.0059 | 84 | 0.495 | CCOc1ccc(O)cc1N1CCN(CCCN2C(=O)C3CC=CCC3C2=O)CC1 (centres unmarked) [Compound No. 24, 2-[3-{4-(2-Ethoxy-5-hydroxyphenyl)piperazin-1-yl}propyl]-3a,4,7,7a-tetrahydro-1H-isoindole-1,3-(2H)-dione hydrochloride]
0.306 | 16 | > 5 | CC(C)Oc1cccc(O)c1N1CCN(CCCN2C(=O)C3CC=CCC3C2=O)CC1 (centres unmarked) [Compound No. 27, 2-[3-{4-(2-isopropoxy-6-hydroxyphenyl)piperazin-1-yl}propyl]-3a,7,7a-tetrahydro-1H-isoindole-1,3(2H)-dione hydrochloride]
0.038 | 15 | 0.582 | CC(C)Oc1c(O)cccc1N1CCN(CCCN2C(=O)C3CC=CCC3C2=O)CC1 (centres unmarked) [Compound No. 35, 2-[3-{4-(2-Isopropoxy-3-hydroxyphenyl)piperazin-1-yllpropyl]-3a,4,7,7a-tetrahydro-1H-isoindole-1,3(2H)-dione hydrochloride]
0.011 | 52 | 0.571 | CC(C)Oc1ccc(O)cc1N1CCN(CCCN2C(=O)CCCC2=O)CC1 [Compound No. 36, 1-[4-(2-Isopropoxy-5-hydroxyphenyl)piperazin-1-yl]-3-(2,6-dioxopiperdin-1-yl)piperazin-1-yl]-3-(2,6-dioxopiperidin-1-yl)propane hydrochloride]
0.462 | >2 | > 1 | CC(C)Oc1cccc(O)c1N1CCN(CCCN2C(=O)CCCC2=O)CC1 [Compound No. 37, 1-[4-(2-Isopropoxy-6-hydroxyphenyl)piperazin-1-yl]-3-(2,6-dioxopiperdin-1-yl)propane hydrochloride]
0.141 | 5 | 0.76 | CC(C)Oc1c(O)cccc1N1CCN(CCCN2C(=O)CCCC2=O)CC1.Cl [Compound No. 38, 1-[4-(2-Isopropoxy-3-hydroxyphenyl)piperazin-1-yl]-3-(2,6-dioxopiperidin-1-yl)propane hydrochloride]
0.0069 | 200 | 1.38 | Cl.O=C1CCCC(=O)N1CC(O)CN1CCN(c2ccccc2OCC(F)(F)F)CC1 (centres unmarked) [Compound No. 39, 1-[4-{2-(2,2,2-Trifluoroethoxy)phenyl)piperazin-1-yl]-2-hydroxy-3-(2,6-dioxopiperidin-1-yl)propane hydrochloride]
0.019 | 41 | 0.781 | CC(C)Oc1ccccc1NCCNCCCN1C(=O)[C@H]2CC=CC[C@H]2C1=O [Compound No. 42, 2-[N-{N′-(2-Isopropoxyphenyl)aminoethyl}aminopropyl]-3a,4,7,7a-tetrahydro-1H-isoindole-1,3(2H)-dione hydrochloride]
0.594 | 3 | 1.74 | Cl.O=C1CCCC(=O)N1CC(O)CN1CCN(c2ccccc2O)CC1 (centres unmarked) [Compound No. 44, 1-[4-(2-hydroxyphenyl)piperazin-1-yl]-2-hydroxy-3-(2,6-dioxopiperidin-1-yl]propane hydrochloride]
0.0086 | 14 | 0.12 | O=C1C2CC=CCC2C(=O)N1CCCN1CCN(c2ccccc2-c2ccccc2)CC1 (centres unmarked) [Compound No. 45, 2-[3-{4-(2-Biphenyl)piperazin-1-yl}propyl]-3a,4,7,7a-tetrahydro-1H-isoindole-1,3(2H)-dione hydrochloride]
0.379 | >3 | > 1 | CC(=O)N(CCCN1C(=O)C2CC=CCC2C1=O)CCNc1ccccc1OC(C)C.Cl (centres unmarked) [Compound No. 46, 2-[N-{N′-(2-Isopropoxyphenyl)aminoethyl}acetylaminopropyl]-3a,4,7,7a-tetrahydro-1H-isoindole-1,3(2H)-dione hydrochloride]
0.299 | >3 | > 1 | CC(=O)N(CCNCCCN1C(=O)C2CC=CCC2C1=O)c1ccccc1OC(C)C.Cl (centres unmarked) [Compound No. 47, 2-[N-{N′-(2-Isopropoxyphenyl)acetylaminoethyl}aminopropyl]-3a,4,7,7a-tetrahydro-1H-isoindole-1,3(2H)-dione hydrochloride]
0.091 | >11 | > 1 | CC(C)Oc1ccccc1NCCN(CCO)CCCN1C(=O)[C@H]2CC=CC[C@H]2C1=O [Compound No. 48, 2-[N-[{N′-(2-Isopropoxyphenyl)aminoethyl}hydroxyethyl]aminopropyl]-3a,4,7,7a-tetrahydro-1H-isoindole-1,3(2H)-dione hydrochloride]
> 1 | 1 | > 1 | CC(C)Oc1ccccc1N1CCN(C(=O)CCN2C(=O)CCCC2=O)CC1.Cl [Compound No. 49, 1-[4(2-Isopropoxyphenyl)piperazin-1-yl]-1-oxo-3-(2,6-dioxopiperidin-1-yl)propane hydrochloride]
0.047 | >21 | > 1 | CC(C)Oc1ccccc1NCCN(CC=O)CCCN1C(=O)C2CC=CCC2C1=O (centres unmarked) [Compound No. 50, 2-[N-{N′-(2-Isopropoxyphenyl)aminoethyl}acetaldehyde-aminopropyl]-3a,4,7,7a-tetrahydro-1H-isoindole-1,3(2H)-dione]
0.662 | >23 | > 15 | CC(C)Oc1ccccc1N(CCO)CCN(CCO)CCCN1C(=O)C2CC=CCC2C1=O (centres unmarked) [Compound No. 51]

Compound | Ki [1] [µM] | α1B/α1A [1] | Ki [2] [µM]
CCOc1ccccc1N1CCN(CCCN2C(=O)C3CC(O)C(Cl)CC3C2=O)CC1.Cl (centres unmarked) [Compound No. 17, hydrochloride] | 0.0016 |  | 0.08
